Tested on: cerebral organoids
Assay: Flow cytometry of marker expression after DAPT treatment
Format: cell-based, human
Procedure: Cerebral organoids, cerebral cortical cell aggregates, and high-purity cerebral cortical cell aggregates were dispersed into single cells by using dispersing solution for neural cells (FUJIFILM Wako Pure Chemical Corporation), fixed by using Fixation Buffer (BD Biosciences) at 4° C. for 30 minutes, then treated with Perm/Wash buffer (BD Biosciences) at room temperature for 15 minutes, subjected to double or triple staining, and analyzed by using an Aria III. The analysis software used was FACSDiva software (BD). The primary antibodies and secondary antibodies used are shown in the following. • PerCP-Cy5.5 Mouse IgGI k isotype control: 550795 (BD Biosciences) Alexa 647 Mouse Anti-human Oct3/4 antigen: 560329 (BD Biosciences) • Tra-2-49/6E-FITC antibody: FCMAB133F (Merck) • Alexa647 mouse anti β-tubulin Class III: 560394 (BD) • PerCP-Cy5.5 Mouse anti-Human Sox1: 561549 (BD) • Alexa647 mouse anti-Human Pax6: 561165(BD) • Alexa488 mouse anti-Ki67: 562249 (BD) • Alexa488 rat anti-Ctip2 antibody: ab123449 (Abcam)
Next, cell aggregates immediately after DAPT treatment (immediately after the completion of step (ii)) were analyzed for the proportions of constituent cells by means of flow cytometry. Cerebral organoids on Day 40 were subjected to DAPT treatment for 3 days, and expressions of marker genes were then analyzed by flow cytometry.
Furthermore, iPS cells on Day 0 (undifferentiated iPS cells), organoids not subjected to DAPT treatment (Ctrl, without step (ii)), organoids subjected to DAPT treatment for 3 days (Day 40 to 43) (DAPT 3d, with step (ii)), and organoids subjected to DAPT treatment for 3 days and subsequently cultured again, as cell aggregates without being dispersed into cells, with a culture medium removed of DAPT for 4 days (DAPT 3d+Release 4d, with step (ii) and step (iv), and without step (iii)) were analyzed by flow cytometry; the results are shown in FIG. 15.
Culture was performed in the same manner as the scheme in FIG. 3 as in Example 1 from −Day 7 to Day 35. A culture medium obtained by adding 5 μM SB431542 to StemFit culture medium without solution C(=bFGF-free culture medium) was used in step (1) in the case of “with preparation for neural differentiation” (with step (1)), and StemFit culture medium was used in the case of “without preparation for neural differentiation” (without step (1)). Thereafter, cerebral cortical cell aggregates were induced by the method described for step (ii) in Example 4, and evaluated by immunostaining. In addition, high-density cerebral cortical cell aggregates were induced by dispersing into single cells and then reaggregating the single cells by the method described for step (iii) and step (iv) in Example 4, and analyzed by flow cytometry.
In the “single-cell DAPT method (DAPT treatment is performed in step (iv))” in FIG. 24(B), cerebral organoids were screened on day 38 after the initiation of induction of differentiation and dispersed into single cells by the method described for step (iii) in Example 4, and the cells were then suspended in a culture medium obtained by adding 10 ng/mL GDNF, 20 ng/mL BDNF, 200 μM ascorbic acid, 400 μM dibutyryl-cAMP, and 30 μM Y-27632 to the culture medium in step (2b) with addition of DAPT at a concentration of 0 μM, 0.1 μM, 1 μM, or 10 μM. Subsequently, the cells were regathered by the method described for step (iv) in Example 4 in the presence of DAPT, and cultured for 1 day, 2 days, or 3 days. Thereafter, the culture medium was switched to a culture medium obtained by adding 10 ng/mL GDNF, 20 ng/mL BDNF, 200 μM ascorbic acid, and 400 μM dibutyryl-cAMP to the culture medium in step (2b), and culture was continued until day 10 after the initiation of reaggregation. The cells on day 3, day 4, or day 10 after the initiation of reaggregation were analyzed by RT-qPCR, and the cells on day 10 were analyzed by flow cytometry; the results are shown in FIGS. 25 to 27. […]

[1] = DAPT 3d+Release 4d: DAPT 3 days, then 4 days in medium removed of DAPT, without dispersion
[2] = single-cell DAPT method (step (iv)), DAPT raised from 0 μM to 10 μM, 3 days treatment, 10 days culture
[3] = week 5 organoids dispersed, 10 μM DAPT 3 days, then DAPT-free culture to 4 days vs 14 days
[4] = without preparation for neural differentiation (without step (1)), DAPT treatment, dispersion and reaggregation

C[C@H](NC(=O)Cc1cc(F)cc(F)c1)C(=O)N[C@H](C(=O)OC(C)(C)C)c1ccccc1 [DAPT, N-[N-(3,5-difluorophenacetyl)-L-alanyl]-S-phenylglycine t-butyl ester]
proportion of Ki67/Sox1/Pax6-triple-positive cells [1]: 0%
proportion of cells co-positive for Ctip2 and βIII-tubulin [1]: 87.4%
proportion of Pax6-positive/Sox1-positive/Ki67-positive cells (proliferative cells) (cerebral organoids on Day 40, DAPT treatment for 3 days (DAPT 3d)): 0.01%
proportion of Ctip2/βIII-tubulin-double-positive cells (cerebral organoids on Day 40, DAPT treatment for 3 days (DAPT 3d), all viable cells): 86.1%
proportion of Pax6/Ki67-double-positive neural stem cells (radial glia) (cerebral organoids on Day 40, DAPT treatment for 3 days, all viable cells): 1.5%
cells with co-expression of Tra2-49/6E and Oct4 (undifferentiated iPS cell indicator) (organoids under any of the conditions (DAPT 3d, DAPT 3d+Release 4d)): not detected
proportion of Ctip2/βTubIII (Tuj1)-double-positive cells [2]: 89.6%
proportion of Pax6-positive/Sox1-positive/Ki67-positive cells (proliferative cells) [2]: 0.8%
proportion of Ctip2/Tuj1-co-positive cells [3]: increase
proportion of Pax6/Ki67-double-positive cells and of Pax6/Ki67/Sox1-triple-positive cells [3]: decreased as the culture period after DAPT treatment was extended
proportion of Ctip2/βTubIII-double-positive cells [4]: 85.9%
proportion of Pax6-positive/Sox1-positive/Ki67-positive cells (proliferative cells) [4]: 0%
proportion of Pax6/Ki67-double-positive neural stem cells (radial glia) [4]: 1.9%
